Source: patent US9279813B2, “Ex vivo flow cytometry method and device” (Purdue Research Foundation, priority 2006, dated 2016)

Biological target: T1, cell surface folate receptors on folate receptor positive M109 cells (Mus musculus, UniProt P35846)
T1 construct: cell surface folate receptors on folate receptor positive M109 cells in culture; endogenous in cells; host or cells: M109 cells
Assay: Fluorescence measurement of binding to cell surface folate receptors on M109 cells in culture
Assay type: cell-based
Method: TEXAS RED C2-maleimide (Molecular Probes, Eugene, Oreg.) was dissolved in dimethyl sulfoxide (DMSO) (1 mg in 200 μl DMSO). A 1.4 molar equivalent (1 mg) of Folate-Cys was added to the solution and mixed for 4 hours at room temperature. Folate-Cys-TEXAS RED (Folate-TEXAS RED) was purified by reverse-phase HPLC on a C18 column at a flow rate of 1 ml/min. The mobile phase, consisting of 10 mM NH4HCO3 buffer, pH 7.0 (eluent A) and acetonitrile (eluent B), was maintained at a 99:1 A:B ratio for the first five minutes and then changed to 70:30 A:B in a linear gradient over the next 30 minutes followed by a 1:99 A:B linear gradient over the last 15 minutes. Folate-Cys-TEXAS RED eluted as two isomer peaks at 44.5 and 45.8 minutes. The product was confirmed by mass spectroscopy and the biologic activity was confirmed by fluorescence measurement of its binding to cell surface folate receptors on folate receptor positive M109 cells in culture.
ALEXAFLUOR 488 C5-maleimide (Molecular Probes, Eugene, Oreg.) was dissolved in dimethyl sulfoxide (DMSO) (0.5 mg in 50 μl DMSO). A 1.5 molar equivalent (0.57 mg) of Folate-Cys was added to the solution and mixed for 4 hours at room temperature. […] The product was confirmed by mass spectroscopy and the biologic activity was confirmed by fluorescence measurement of its binding to cell surface folate receptors on folate receptor positive M109 cells in culture.

T1 sequence (P35846 25-232): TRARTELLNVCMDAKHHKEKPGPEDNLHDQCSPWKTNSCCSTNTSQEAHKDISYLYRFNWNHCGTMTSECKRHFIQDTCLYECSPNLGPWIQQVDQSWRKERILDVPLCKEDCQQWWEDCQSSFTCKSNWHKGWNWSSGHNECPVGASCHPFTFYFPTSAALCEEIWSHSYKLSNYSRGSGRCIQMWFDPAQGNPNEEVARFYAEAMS

## Nc1nc2ncc(CNc3ccc(C(=O)NC(CCC(=O)NC(CSC4CC(=O)N(CCNS(=O)(=O)c5ccc(C6=c7cc8c9c(c7Oc7c6cc6c%10c7CCCN%10CCC6)CCC[N+]=9CCC8)c(S(=O)(=O)O)c5)C4=O)C(=O)O)C(=O)O)cc3)nc2c(=O)[nH]1 (centres unmarked) [Folate-Cys-TEXAS RED]
  biologic activity: binding to cell surface folate receptors: confirmed

## N=c1ccc2c(-c3ccc(C(=O)NCCCCCN4C(=O)CC(SCC(NC(=O)CCC(NC(=O)c5ccc(NCc6cnc7nc(N)[nH]c(=O)c7n6)cc5)C(=O)O)C(=O)O)C4=O)cc3C(=O)O)c3ccc(N)c(S(=O)(=O)O)c3oc-2c1S(=O)(=O)O (centres unmarked) [Folate-Cys-ALEXAFLUOR 488]
  biologic activity: binding to cell surface folate receptors: confirmed
